{
  "source": "patent US10653680B2",
  "about": "“Treatment of impulsivity-related disorders” (OXFORD UNIVERSITY INNOVATION LIMITED, priority 2016, dated 2020)",
  "key": {"rats [1]": {"test_system": "rats", "experiment": "5 Choice Serial Reaction Time Task (5-CSRTT)", "type": "in vivo, rats (males; Long Evans)", "procedure": "(§1) Testing was carried out in Vancouver (Canada) using rats (males; Long Evans from Charles River) which were given at least two weeks to acclimatise to the animal facility. They were housed in pairs on a 12 hour reverse light-dark cycle (lights off at 7 am). In the second week of acclimatisation, rats were handled briefly each day. […] For each task, there was then a habituation session to the operant boxes before training began.\n(§2) Ebselen, cocaine and 2,5-dimethoxy-4-iodoamphetamine (DOI) were obtained from Sigma Aldrich, and MDL 100,907 was obtained from Tocris. Ebselen was dissolved in 0.5M DMSO and made up to injection volume (8 ml/kg) using 4% cyclodextrin. Cocaine and DOI were dissolved in 0.9% saline. MDL 100,907 was dissolved in 0.9% saline and the pH was adjusted to 6.25 using 1M NaOH and 0.1M HCl.\n(§3) All data for the cognitive tasks are presented as mean+SEM change from baseline: • performance on drug day−performance on the previous day\nThe data were analysed with repeated measures ANOVA with dose as a within-subject factor. Where appropriate, post-hoc analysis was performed using Student's paired t-test.\nThis test was performed as described previously (Bari et al., Nature Protocols, 2008, 3(5), 759-767; Robbins, Psychopharmacology, 2002, 163(3), 362-380).\nFourteen rats were trained to respond to brief visual cues presented in one of five target areas with an inter-trial interval of 5 seconds. On the day of testing in the presence of ebselen, the inter-trial interval was lengthened to 7 seconds to cause a reliable increase in premature responding.\nEbselen and vehicle were administered by intraperitoneal (i.p.) injection 1 hour prior to testing. Three doses of ebselen (2, 5 or 10 mg/kg) were studied, administration being in a random order that was determined by a Latin square design. Rats were run five days a week, with the treatment day falling on day three.\nFollowing ebselen, 3 doses of MDL 100,907 (0.01, 0.03 and 0.1 mg/kg, i.p.) were tested in a Latin square design with the first injection occurring one week after the final injection of ebselen. MDL 100,907 is a selective 5-HT2A antagonist. Rats were similarly run five days a week with injections falling on the third day, and the lengthened inter-trial interval was used only on the drug-administration day.\nThe Latin square design (for both the 5-CSRTT and rGT experiments) was counterbalanced, based on performance in the last training day of each task. A one week wash-out period was given between drug-administration days. A baseline session was performed both the day before and the day after treatment to ensure stable off-drug performance."}, "rats [2]": {"test_system": "rats", "experiment": "5-CSRTT, stimulant (cocaine)-induced responding", "type": "in vivo, rats (males; Long Evans)", "procedure": "as §1, §2, §3\nIn experiments investigating the effect of ebselen on cocaine and DOI, data were analysed with a two-way ANOVA with ebselen and cocaine/DOI as between-subject factors. If an interaction was detected, this was further investigated using simple main effects analysis. All analyses were conducted using SPSS 22 with p<0.05 considered significant.\nTo assess the effect of ebselen on stimulant-induced responding, ebselen (10 mg/kg) or vehicle was administered 1 hour prior to cocaine (15 mg/kg i.p.), which in turn was administered 10 minutes prior to testing. Treatments were administered using according to a Latin square design. The inter-trial interval for these sessions was 5 seconds. Two rats were excluded from the data due to increasing levels of omissions across all days of this portion of the study. The experiment was repeated using 0.03 mg/kg MDL 100,907 instead of ebselen."}},
  "data": [
    {"smiles": "COc1cccc([C@H](O)C2CCN(CCc3ccc(F)cc3)CC2)c1OC", "note": "[MDL 100,907, reference compound]", "values": [
      {"measurement": "accuracy (decrease seen following vehicle injection)", "setting": "rats [1]; MDL 100,907 0.01 mg/kg (second mention), p=0.027", "result": "significantly negated the decrease in accuracy"},
      {"measurement": "accuracy (decrease seen following vehicle injection)", "setting": "rats [1]; MDL 100,907 0.01 mg/kg i.p., p=0.020", "result": "significantly negated the decrease in accuracy"},
      {"measurement": "accuracy (decrease seen following vehicle injection)", "setting": "rats [1]; MDL 100,907 0.03 mg/kg i.p., p=0.052", "result": "trend"},
      {"measurement": "other parameters of the 5-CSRTT", "setting": "rats [1]; MDL 100,907 0.01, 0.03, 0.1 mg/kg i.p., p=0.170-0.872", "result": "no detectable effects"},
      {"measurement": "premature responding", "setting": "rats [1]; MDL 100,907 at all dosage levels (0.01, 0.03 and 0.1 mg/kg i.p.) vs vehicle, p=0.008, 0.009, 0.001", "result": "decreased premature responding"},
      {"measurement": "cocaine-induced increases in premature responding", "setting": "rats [2]; MDL 100,907 0.03 mg/kg before cocaine 15 mg/kg i.p., p=0.282", "result": "did not reduce cocaine-induced increases in premature responding"},
      {"measurement": "correct response latency", "setting": "rats [2]; MDL 100,907 0.03 mg/kg, cocaine experiment, p=0.072", "result": "increased trend"}
    ]}
  ]
}
